“And” between values parts separate entries of the source, which are not always exact repeats. Equal entries are not always repeated. Where two headings read alike, the source gives them in different places.
Assays:
rat α-thrombin = target: T1, rat α-thrombin (Rattus norvegicus, UniProt P18292); test: Protease inhibition, Ki for rat α-thrombin (fluorogenic substrate Z-Gly-Gly-Arg-AMC); format: biochemical; settings: for Rat alpha thrombin inhibition, slope normalized to DMSO: replicates R1-R3
T1 construct: rat α-thrombin (Molecular Innovations) were used at final concentrations of 2 nM and 3 nM; purchased Molecular Innovations
Procedure, shortened: (§1)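 Inhibition was measured as AMC fluorescence from 50 μM substrate, monitored for 30 min at 25 °C, relative to a peptide-free control. Human and rat enzymes were present at 2 nM and 3 nM final, respectively, in 50 mM Tris-HCl pH 7.4, 150 mM NaCl, 10 mM MgCl2, 1 mM CaCl2. Ki derives from fitted IC50 via Cheng–Prusoff.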

human α-thrombin = human α-thrombin (Homo sapiens, UniProt P00734); test: Protease inhibition, Ki for human α-thrombin (fluorogenic substrate Z-Gly-Gly-Arg-AMC); format: biochemical; settings: for Human alpha thrombin inhibition, slope normalized to DMSO: replicates R1-R3
Procedure, shortened: as §1

[1] = Passive artificial membrane permeability (PAMPA);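 as to Permeability% Average: top well sample relative to theoretical equilibrium sample by TIC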
[2] = peptide concentration 1.00E+02 uM
[3] = peptide concentration 1.19E-05 uM
[4] = peptide concentration 1.22E-02 uM
[5] = peptide concentration 1.25E+01 uM
[6] = peptide concentration 1.53E-03 uM
[7] = peptide concentration 1.56E+00 uM
[8] = peptide concentration 1.91E-04 uM
[9] = peptide concentration 1.95E-01 uM
[10] = peptide concentration 2.38E-05 uM
[11] = peptide concentration 2.44E-02 uM
[12] = peptide concentration 2.50E+01 uM
[13] = peptide concentration 3.05E-03 uM
[14] = peptide concentration 3.12E+00 uM
[15] = peptide concentration 3.81E-04 uM
[16] = peptide concentration 3.91E-01 uM
[17] = peptide concentration 4.77E-05 uM
[18] = peptide concentration 4.88E-02 uM
[19] = peptide concentration 5.00E+01 uM
[20] = peptide concentration 6.10E-03 uM
[21] = peptide concentration 6.25E+00 uM
[22] = peptide concentration 7.63E-04 uM
[23] = peptide concentration 7.81E-01 uM
[24] = peptide concentration 9.54E-05 uM
[25] = peptide concentration 9.77E-02 uM

## O=C1C[C@H]2CCCN2C(=O)[C@H](Cc2ccccc2)NC(=O)[C@@H](NC(=O)c2ccc(Cl)s2)CC=CCCCN1 [compound 40]
Rat α-thrombin; average of R1-R3, read-out: Rat alpha thrombin inhibition, Ki Average
  Ki: 1480 nM
Rat α-thrombin; [2]
  Rat alpha thrombin inhibition, slope normalized to DMSO: 8.5 and 10.5 and 9.7
Rat α-thrombin; [3]
  Rat alpha thrombin inhibition, slope normalized to DMSO: 107.2 and 105.4 and 103.1
Rat α-thrombin; [4]
  Rat alpha thrombin inhibition, slope normalized to DMSO: 105.9 and 100.2 and 97.5
Rat α-thrombin; [5]
  Rat alpha thrombin inhibition, slope normalized to DMSO: 28.9 and 25.6 and 11.1
Rat α-thrombin; [6]
  Rat alpha thrombin inhibition, slope normalized to DMSO: 104.7 and 100.1 and 100.7
Rat α-thrombin; [7]
  Rat alpha thrombin inhibition, slope normalized to DMSO: 60.2 and 60.7 and 63.3
Rat α-thrombin; [8]
  Rat alpha thrombin inhibition, slope normalized to DMSO: 101.0 and 93.6 and 80.4
Rat α-thrombin; [9]
  Rat alpha thrombin inhibition, slope normalized to DMSO: 77.4 and 91.6 and 90.6
Rat α-thrombin; [10]
  Rat alpha thrombin inhibition, slope normalized to DMSO: 99.9 and 95.1 and 101.1
Rat α-thrombin; [11]
  Rat alpha thrombin inhibition, slope normalized to DMSO: 106.7 and 94.6 and 110.9
Rat α-thrombin; [12]
  Rat alpha thrombin inhibition, slope normalized to DMSO: 3.6 and 15.7 and 17.5
Rat α-thrombin; [13]
  Rat alpha thrombin inhibition, slope normalized to DMSO: 104.4 and 102.5 and 99.7
Rat α-thrombin; [14]
  Rat alpha thrombin inhibition, slope normalized to DMSO: 54.9 and 53.5 and 52.8
Rat α-thrombin; [15]
  Rat alpha thrombin inhibition, slope normalized to DMSO: 103.0 and 99.2 and 100.1
Rat α-thrombin; [16]
  Rat alpha thrombin inhibition, slope normalized to DMSO: 58.4 and 57.7 and 87.4
Rat α-thrombin; [17]
  Rat alpha thrombin inhibition, slope normalized to DMSO: 109.2 and 85.2 and 99.3
Rat α-thrombin; [18]
  Rat alpha thrombin inhibition, slope normalized to DMSO: 100.3 and 95.3 and 106.1
Rat α-thrombin; [19]
  Rat alpha thrombin inhibition, slope normalized to DMSO: 16.0 and 15.4 and 14.7
Rat α-thrombin; [20]
  Rat alpha thrombin inhibition, slope normalized to DMSO: 102.6 and 94.5 and 101.1
Rat α-thrombin; [21]
  Rat alpha thrombin inhibition, slope normalized to DMSO: 50.1 and 39.5 and 38.6
Rat α-thrombin; [22]
  Rat alpha thrombin inhibition, slope normalized to DMSO: 102.8 and 105.9 and 89.3
Rat α-thrombin; [23]
  Rat alpha thrombin inhibition, slope normalized to DMSO: 79.5 and 71.2 and 76.6
Rat α-thrombin; [24]
  Rat alpha thrombin inhibition, slope normalized to DMSO: 103.0 and 96.4 and 84.9
Rat α-thrombin; [25]
  Rat alpha thrombin inhibition, slope normalized to DMSO: 100.1 and 93.3 and 83.6
Rat α-thrombin; single replicates R1-R3, read-out: Rat alpha thrombin inhibition, IC50
  IC50: 2600 nM and 2780 nM and 2670 nM
Rat α-thrombin; single replicates R1-R3, read-out: Rat alpha thrombin inhibition, Ki
  Ki: 1.44 µM (2×) and 1.54 µM (2×) and 1.48 µM (2×)
Human α-thrombin; average of R1-R3, read-out: Human alpha thrombin inhibition, Ki Average
  Ki: 3780 nM
Human α-thrombin; [2]
  Human alpha thrombin inhibition, slope normalized to DMSO: 24.9 and 25.0 and 20.5
Human α-thrombin; [3]
  Human alpha thrombin inhibition, slope normalized to DMSO: 103.5 and 123.5 and 102.0
Human α-thrombin; [4]
  Human alpha thrombin inhibition, slope normalized to DMSO: 106.6 and 86.5 and 61.9
Human α-thrombin; [5]
  Human alpha thrombin inhibition, slope normalized to DMSO: 42.7 and 42.4 and 47.7
Human α-thrombin; [6]
  Human alpha thrombin inhibition, slope normalized to DMSO: 60.4 and 64.9 and 105.1
Human α-thrombin; [7]
  Human alpha thrombin inhibition, slope normalized to DMSO: 69.9 and 77.6 and 68.9
Human α-thrombin; [8]
  Human alpha thrombin inhibition, slope normalized to DMSO: 105.9 and 100.1 and 65.2
Human α-thrombin; [9]
  Human alpha thrombin inhibition, slope normalized to DMSO: 62.1 and 70.8 and 60.8
Human α-thrombin; [10]
  Human alpha thrombin inhibition, slope normalized to DMSO: 104.8 and 103.3 and 108.6
Human α-thrombin; [11]
  Human alpha thrombin inhibition, slope normalized to DMSO: 60.0 and 97.7 and 99.0
Human α-thrombin; [12]
  Human alpha thrombin inhibition, slope normalized to DMSO: 33.7 and 37.4 and 37.6
Human α-thrombin; [13]
  Human alpha thrombin inhibition, slope normalized to DMSO: 90.7 and 95.7 and 101.5
Human α-thrombin; [14]
  Human alpha thrombin inhibition, slope normalized to DMSO: 61.5 and 74.1 and 46.2
Human α-thrombin; [15]
  Human alpha thrombin inhibition, slope normalized to DMSO: 102.1 and 112.0 and 80.2
Human α-thrombin; [16]
  Human alpha thrombin inhibition, slope normalized to DMSO: 89.5 and 72.3
Human α-thrombin; [17]
  Human alpha thrombin inhibition, slope normalized to DMSO: 107.9 and 97.7 and 98.2
Human α-thrombin; [18]
  Human alpha thrombin inhibition, slope normalized to DMSO: 58.9 and 84.7 and 96.6
Human α-thrombin; [19]
  Human alpha thrombin inhibition, slope normalized to DMSO: 23.5 and 29.5 (2×)
Human α-thrombin; [20]
  Human alpha thrombin inhibition, slope normalized to DMSO: 76.0 and 102.5 and 99.2
Human α-thrombin; [21]
  Human alpha thrombin inhibition, slope normalized to DMSO: 68.9 and 63.0 and 35.5
Human α-thrombin; [22]
  Human alpha thrombin inhibition, slope normalized to DMSO: 61.7 and 101.5 and 87.5
Human α-thrombin; [23]
  Human alpha thrombin inhibition, slope normalized to DMSO: 99.5 and 72.0 and 89.1
Human α-thrombin; [24]
  Human alpha thrombin inhibition, slope normalized to DMSO: 106.0 and 103.1 and 118.2
Human α-thrombin; [25]
  Human alpha thrombin inhibition, slope normalized to DMSO: 62.3 and 75.9 and 55.0
[1]; 50 μM, 12–18 h, acceptor concentration relative to equilibrium
  PAMPA permeability: % permeability: 42 ± 11%
[1]; 50 μM, 13 h (Fig. 5d)
  Permeability% (single replicates R1–R3): 47.12% and 50.47% and 29.38%
  Permeability% Average: 42.3%
[1]; PAMPA, pH 7.4
  Papp at 50 μM: 4.9 ×10⁻⁶ cm/s

From article PMC11062899, “De novo development of small cyclic peptides that are orally bioavailable” (Nature Chemical Biology, 2023)
